From patent US8802597B2, “Herbicidal pyrimidines” (E I du Pont de Nemours and Company, priority 2003, dated 2014)

Columns and labels:
Assay type in all cases: in vivo
[1] = tested on: Russian thistle (Salsola kali); test: Test D pre/postemergence; conditions: scale 0 to 100 (100 = complete control)
Method in brief: (§1)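 Weed and cereal species treated preemergence, or postemergence at 2–18 cm (1- to 4-leaf stage), with test chemicals in non-phytotoxic solvent with surfactant. Kept in controlled growth environment 15 to 25 days, then rated visually against controls on a 0 (no effect) to 100 (complete control) scale.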

[2] = tested on: wheat (Triticum aestivum); test: Test D pre/postemergence; conditions: scale 0 to 100 (100 = complete control)
Method in brief: as §1

[3] = tested on: wild buckwheat (Polygonum convolvulus); test: Test D pre/postemergence; conditions: scale 0 to 100 (100 = complete control)
Method in brief: as §1

[4] = tested on: lambsquarters (Chenopodium album); test: Test D pre/postemergence; conditions: scale 0 to 100 (100 = complete control)
Method in brief: as §1

kochia (Kochia scoparia) [5] = test: Test D pre/postemergence; conditions: scale 0 to 100 (100 = complete control)
Method in brief: as §1

[6] = tested on: common chickweed (Stellaria media); test: Test D pre/postemergence; conditions: scale 0 to 100 (100 = complete control)
Method in brief: as §1

[7] = tested on: wild mustard (Sinapis arvensis); test: Test D pre/postemergence; conditions: scale 0 to 100 (100 = complete control)
Method in brief: as §1

[8] = tested on: spanishneedles (Bidens bipinnata); test: Test G pre/postemergence; conditions: Preemergence
Method in brief: (§2)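 Test chemicals in non-phytotoxic solvent with surfactant applied preemergence to sown seeds or nutlets and postemergence to plants 2–18 cm tall (1- to 4-leaf stage). Greenhouse-held 12–21 days, then visually rated against untreated controls on a 0 (no effect) to 100 (complete control) scale.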

[9] = tested on: common groundsel (Senecio vulgaris); test: Test G pre/postemergence
Method in brief: as §2

[10] = tested on: common purslane (Portulaca oleracea); test: Test G pre/postemergence
Method in brief: as §2

[11] = tested on: common sowthistle (Sonchus oleraceous); test: Test G pre/postemergence
Method in brief: as §2

kochia (Kochia scoparia) [12] = test: Test G pre/postemergence
Method in brief: as §2

[13] = Postemergence, 16 g ai/ha, scale 0 to 100
[14] = Postemergence, 31 g ai/ha, scale 0 to 100
[15] = Postemergence, 62 g ai/ha, scale 0 to 100
[16] = Postemergence, 125 g ai/ha, scale 0 to 100
[17] = Preemergence, 31 g ai/ha, scale 0-100
[18] = Preemergence, 250 g ai/ha, scale 0-100
[19] = Postemergence, 250 g ai/ha, scale 0 to 100
[20] = Preemergence, 16 g ai/ha, scale 0-100
[21] = Preemergence, 62 g ai/ha, scale 0-100
[22] = Preemergence, 125 g ai/ha, scale 0-100

COC(=O)c1nc(C2CC2)nc(N)c1Cl [Compound 9, methyl 6-amino-5-chloro-2-cyclopropyl-4-pyrimidinecarboxylate]
Plant response rating, Russian Thistle ([1]; Postemergence, 16 g ai/ha): 65
Plant response rating, Russian Thistle ([1]; Postemergence, 31 g ai/ha): 90
Plant response rating, Russian Thistle ([1]; Postemergence, 62 g ai/ha): 100
Plant response rating, Russian Thistle ([1]; Postemergence, 125 g ai/ha): 100
Plant response rating, Russian Thistle ([1]; Preemergence, 16 g ai/ha): 100
Plant response rating, Russian Thistle ([1]; Preemergence, 31 g ai/ha): 100
Plant response rating, Russian Thistle ([1]; Preemergence, 62 g ai/ha): 100
Plant response rating, Russian Thistle ([1]; Preemergence, 125 g ai/ha): 100
Plant response rating, Wheat ([2]; Postemergence, 16 g ai/ha): 50
Plant response rating, Wheat ([2]; Postemergence, 31 g ai/ha): 80
Plant response rating, Wheat ([2]; Postemergence, 62 g ai/ha): 90
Plant response rating, Wheat ([2]; Postemergence, 125 g ai/ha): 100
Plant response rating, Wheat ([2]; Preemergence, 16 g ai/ha): 60
Plant response rating, Wheat ([2]; Preemergence, 31 g ai/ha): 75
Plant response rating, Wheat ([2]; Preemergence, 62 g ai/ha): 75
Plant response rating, Buckwheat, Wild ([3]; Postemergence, 16 g ai/ha): 65
Plant response rating, Buckwheat, Wild ([3]; Postemergence, 31 g ai/ha): 80
Plant response rating, Buckwheat, Wild ([3]; Postemergence, 62 g ai/ha): 100
Plant response rating, Buckwheat, Wild ([3]; Postemergence, 125 g ai/ha): 100
Plant response rating, Buckwheat, Wild ([3]; Preemergence, 16 g ai/ha): 60
Plant response rating, Buckwheat, Wild ([3]; Preemergence, 31 g ai/ha): 85
Plant response rating, Buckwheat, Wild ([3]; Preemergence, 62 g ai/ha): 100
Plant response rating, Buckwheat, Wild ([3]; Preemergence, 125 g ai/ha): 100
Plant response rating, Lambsquarters ([4]; Postemergence, 16 g ai/ha): 95
Plant response rating, Lambsquarters ([4]; Postemergence, 31 g ai/ha): 100
Plant response rating, Lambsquarters ([4]; Postemergence, 62 g ai/ha): 100
Plant response rating, Lambsquarters ([4]; Postemergence, 125 g ai/ha): 100
Plant response rating, Lambsquarters ([4]; Preemergence, 16 g ai/ha): 65
Plant response rating, Lambsquarters ([4]; Preemergence, 31 g ai/ha): 100
Plant response rating, Lambsquarters ([4]; Preemergence, 62 g ai/ha): 100
Plant response rating, Lambsquarters ([4]; Preemergence, 125 g ai/ha): 100
Plant response rating, Kochia (kochia (Kochia scoparia) [5]; Postemergence, 16 g ai/ha): 85
Plant response rating, Kochia (kochia (Kochia scoparia) [5]; Postemergence, 31 g ai/ha): 100
Plant response rating, Kochia (kochia (Kochia scoparia) [5]; Postemergence, 62 g ai/ha): 100
Plant response rating, Kochia (kochia (Kochia scoparia) [5]; Postemergence, 125 g ai/ha): 100
Plant response rating, Kochia (kochia (Kochia scoparia) [5]; Preemergence, 16 g ai/ha): 70
Plant response rating, Kochia (kochia (Kochia scoparia) [5]; Preemergence, 31 g ai/ha): 98
Plant response rating, Kochia (kochia (Kochia scoparia) [5]; Preemergence, 62 g ai/ha): 100
Plant response rating, Kochia (kochia (Kochia scoparia) [5]; Preemergence, 125 g ai/ha): 100
Plant response rating, Chickweed ([6]; Postemergence, 16 g ai/ha): 60
Plant response rating, Chickweed ([6]; Postemergence, 31 g ai/ha): 100
Plant response rating, Chickweed ([6]; Postemergence, 62 g ai/ha): 100
Plant response rating, Chickweed ([6]; Postemergence, 125 g ai/ha): 100
Plant response rating, Chickweed ([6]; Preemergence, 16 g ai/ha): 65
Plant response rating, Chickweed ([6]; Preemergence, 31 g ai/ha): 95
Plant response rating, Chickweed ([6]; Preemergence, 62 g ai/ha): 100
Plant response rating, Chickweed ([6]; Preemergence, 125 g ai/ha): 100
Plant response rating, Mustard, Wild ([7]; Postemergence, 16 g ai/ha): 65
Plant response rating, Mustard, Wild ([7]; Postemergence, 31 g ai/ha): 80
Plant response rating, Mustard, Wild ([7]; Postemergence, 62 g ai/ha): 80
Plant response rating, Mustard, Wild ([7]; Postemergence, 125 g ai/ha): 95
Plant response rating, Mustard, Wild ([7]; Preemergence, 16 g ai/ha): 60
Plant response rating, Mustard, Wild ([7]; Preemergence, 31 g ai/ha): 70
Plant response rating, Mustard, Wild ([7]; Preemergence, 62 g ai/ha): 85
Plant response rating, Mustard, Wild ([7]; Preemergence, 125 g ai/ha): 85
Plant response rating, Spanishneedles ([8]; 62 g ai/ha, scale 0-100): 100
Plant response rating, Spanishneedles ([8]; 125 g ai/ha, scale 0-100): 100
Plant response rating, Spanishneedles ([8]; 250 g ai/ha, scale 0-100): 100
Plant response rating, Spanishneedles ([8]; 500 g ai/ha, scale 0 to 100): 100

Nc1nc(C2CC2)nc(C(=O)OCc2ccccc2)c1Br [Compound 22, phenylmethyl 6-amino-5-bromo-2-cyclopropyl-4-pyrimidinecarboxylate]
Plant response rating, Groundsel [9, 13]: 65
Plant response rating, Groundsel [9, 14]: 65
Plant response rating, Groundsel [9, 15]: 65
Plant response rating, Groundsel [9, 16]: 85
Plant response rating, Groundsel [9, 17]: 0
Plant response rating, Groundsel [9, 18]: 50
Plant response rating, Purslane [10, 19]: 98
Plant response rating, Purslane [10, 13]: 50
Plant response rating, Purslane [10, 14]: 55
Plant response rating, Purslane [10, 15]: 85
Plant response rating, Purslane [10, 16]: 95
Plant response rating, Purslane [10, 20]: 0
Plant response rating, Purslane [10, 17]: 0
Plant response rating, Purslane [10, 21]: 50
Plant response rating, Purslane [10, 22]: 70
Plant response rating, Purslane [10, 18]: 75
Plant response rating, Sowthistle [11, 19]: 100
Plant response rating, Sowthistle [11, 13]: 75
Plant response rating, Sowthistle [11, 14]: 85
Plant response rating, Sowthistle [11, 15]: 95
Plant response rating, Sowthistle [11, 16]: 100
Plant response rating, Sowthistle [11, 20]: 35
Plant response rating, Sowthistle [11, 17]: 75
Plant response rating, Sowthistle [11, 21]: 90
Plant response rating, Sowthistle [11, 22]: 100
Plant response rating, Sowthistle [11, 18]: 100
Plant response rating, Kochia (kochia (Kochia scoparia) [12]; [19]): 100
Plant response rating, Kochia (kochia (Kochia scoparia) [12]; [13]): 98
Plant response rating, Kochia (kochia (Kochia scoparia) [12]; [14]): 98
Plant response rating, Kochia (kochia (Kochia scoparia) [12]; [15]): 98
Plant response rating, Kochia (kochia (Kochia scoparia) [12]; [16]): 100
Plant response rating, Kochia (kochia (Kochia scoparia) [12]; [20]): 35
Plant response rating, Kochia (kochia (Kochia scoparia) [12]; [17]): 70
Plant response rating, Kochia (kochia (Kochia scoparia) [12]; [21]): 98
Plant response rating, Kochia (kochia (Kochia scoparia) [12]; [22]): 100
Plant response rating, Kochia (kochia (Kochia scoparia) [12]; [18]): 100
